For orientation: DC50 means the midpoint of the concentration-degradation curve. The low end stands for a more potent degrader, the high end for a less potent degrader.

The assay deals with T1, ARNT (Homo sapiens, UniProt P27540).
T1 construct: an sgRNA targeting the C-terminus of the ARNT gene near the stop codon; endogenous in cells; host or cells: HEK293 ARNT-HiBiT knock-in, homozygous clone
The experiment in a line: ARNT degradation in a HiBiT system (HEK293 ARNT-HiBiT Knock-In cell line). It counts as cell-based. The note with it: half-maximal degradation concentration; HEK293 ARNT-HiBiT KI cells, 4h of treatment, luminescence. On the procedure:
Compounds of Formula (I) were tested for ARNT degradation in a HiBiT system. A HEK293 ARNT-HiBiT Knock-In cell line was generated using CRISPR/Cas9 technology. Briefly, HEK293 cells were electroporated with the Neon system with an sgRNA targeting the C-terminus of the ARNT gene near the stop codon ([…] (SEQ ID NO: 1); chr 1: 150,812,014-150,812,034) and the HiBiT donor DNA template (80 nucleotides homology arms upstream and downstream of the insert site, with a GSGS (SEQ ID NO: 2) linker). A homozygous clone was selected after Sanger sequencing, and genetic edition was further validated using Nano-Glo HiBiT blotting system. HEK293 ARNT-HiBiT KI cells were cultured in DMEM+10% FBS at 37° C. and 5% CO2. For the assay, cells were seeded at 10,000 cells/well in white 384 plates (Corning #3570) in 22.5 μl of culture medium without phenol red. Test compounds were spotted in 384-well plates by an acoustic dispenser (10 concentrations, semi-log dilution, in 100% DMSO). Before treatment, compounds were diluted 1:100 or 1:1,000 in culture medium without phenol red, and cells were treated with 2.5 μl of diluted compounds 18h after seeding (final top concentration: 3 or 0.3 μM). After 4h of treatment, plates were equilibrated at room temperature for 30 min, and 25 μl of NANO-GLO® HiBiT Lytic reagent were added per well. Luminescence was measured on a plate reader 15 min after incubation with the detection reagent. Data were analyzed using the Genedata Screener Software version 19, and normalization was performed using the DMSO treated wells as Neutral Control and medium only (without cells) wells as Scale Reference. For curve fitting, the smart fit condensing method with a 4-parameters Hill model was used and the half-maximal degradation concentration (DC50) was calculated.
(In general: The HiBiT peptide binds its large partner to form an active luciferase.)

T1 sequence (P27540 whole entry): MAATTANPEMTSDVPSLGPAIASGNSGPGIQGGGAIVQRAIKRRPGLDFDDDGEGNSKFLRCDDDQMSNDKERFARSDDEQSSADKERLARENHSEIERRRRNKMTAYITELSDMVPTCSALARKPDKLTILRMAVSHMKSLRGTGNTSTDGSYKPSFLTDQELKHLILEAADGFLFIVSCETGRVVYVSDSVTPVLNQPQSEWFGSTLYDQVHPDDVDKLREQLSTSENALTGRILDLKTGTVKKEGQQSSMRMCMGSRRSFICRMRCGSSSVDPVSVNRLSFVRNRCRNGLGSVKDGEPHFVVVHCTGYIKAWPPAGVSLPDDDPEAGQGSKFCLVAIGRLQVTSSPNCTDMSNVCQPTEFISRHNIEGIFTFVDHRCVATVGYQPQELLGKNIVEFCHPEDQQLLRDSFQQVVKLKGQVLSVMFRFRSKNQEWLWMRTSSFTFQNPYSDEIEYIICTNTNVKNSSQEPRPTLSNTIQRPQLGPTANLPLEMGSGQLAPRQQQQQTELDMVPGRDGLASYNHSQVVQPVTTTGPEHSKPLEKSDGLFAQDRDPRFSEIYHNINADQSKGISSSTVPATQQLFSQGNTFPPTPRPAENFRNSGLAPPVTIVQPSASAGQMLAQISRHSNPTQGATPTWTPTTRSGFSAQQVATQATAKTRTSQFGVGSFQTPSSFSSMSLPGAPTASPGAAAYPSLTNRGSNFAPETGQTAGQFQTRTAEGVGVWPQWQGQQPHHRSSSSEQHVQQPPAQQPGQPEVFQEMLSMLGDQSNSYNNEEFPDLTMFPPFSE

For `Cc1ccc2c(c1F)CN(C(=O)c1cc3c(cc1F)C(=O)N([C@H]1CCC(=O)NC1=O)[C@@H]3C)[C@H]2C` [Compound 25, (S)-3-((R)-5-fluoro-6-((S)-4-fluoro-1,5-dimethylisoindoline-2-carbonyl)-1-methyl-3-oxoisoindolin-2-yl)piperidine-2,6-dione], it took 1.6 nM to reach half-maximal degradation (DC50).
The compound `Cc1ccc2c(c1F)CN(C(=O)c1ccc3c(c1)[C@@H](C)N([C@H]1CCC(=O)NC1=O)C3=O)[C@H]2C` [Compound 26, (S)-3-((R)-5-((S)-4-fluoro-1,5-dimethylisoindoline-2-carbonyl)-3-methyl-1-oxoisoindolin-2-yl)piperidine-2,6-dione] displayed a 50% degradation concentration (DC50) of 1.7 nM.
Then `C[C@@H]1c2cc(C(=O)N3Cc4ccc(F)cc4[C@@H]3C)ccc2C(=O)N1[C@H]1CCC(=O)NC1=O` [Compound 27, (S)-3-((R)-5-((S)-6-fluoro-1-methylisoindoline-2-carbonyl)-3-methyl-1-oxoisoindolin-2-yl)piperidine-2,6-dione], with 1.7 nM; and `COc1ccc2c(c1)CN(C(=O)c1ccc3c(c1)[C@@H](C)N([C@H]1CCC(=O)NC1=O)C3=O)[C@H]2CN(C)C` [Compound 28, (S)-3-((R)-5-((R)-1-((dimethylamino)methyl)-5-methoxyisoindoline-2-carbonyl)-3-methyl-1-oxoisoindolin-2-yl)piperidine-2,6-dione], with 1.7 nM.
For the compound `C[C@@H]1c2c(ccc(C(=O)N3Cc4ccccc4[C@@H]3CN(C)C)c2F)C(=O)N1[C@H]1CCC(=O)NC1=O` [Compound 29, (S)-3-((R)-5-((R)-1-((dimethylamino)methyl)isoin-doline-2-carbonyl)-4-fluoro-3-methyl-1-oxoisoindolin-2-yl)piperidine-2,6-dione], the DC50 amounted to 1.8 nM.
On to `C[C@@H]1c2cc(C(=O)N3Cc4c(ccc(Cl)c4F)[C@@H]3C)ccc2C(=O)N1[C@H]1CCC(=O)NC1=O` [Compound 30, (S)-3-((R)-5-((S)-5-chloro-4-fluoro-1-methylisoindoline-2-carbonyl)-3-methyl-1-oxoisoindolin-2-yl)piperidine-2,6-dione], for which the 50% degradation concentration (DC50) came out at 1.9 nM. The DC50 values of the last two compounds are within 1.5-fold of each other.
Turning to `C[C@@H]1c2cc(C(=O)N3Cc4cc(C(F)(F)F)ccc4[C@@H]3C)ccc2C(=O)N1[C@H]1CCC(=O)NC1=O` [Compound 31, (S)-3-((R)-3-methyl-5-((S)-1-methyl-5-(trifluoromethyl)isoindoline-2-carbonyl)-1-oxoisoindolin-2-yl)piperidine-2,6-dione], it took 2.2 nM to reach half-maximal degradation (DC50).
`C[C@@H]1c2cc(C(=O)N3Cc4c(ccc(C(F)(F)F)c4F)[C@@H]3C)ccc2C(=O)N1[C@H]1CCC(=O)NC1=O` [Compound 32, (S)-3-((R)-5-((S)-4-fluoro-1-methyl-5-(trifluoromethyl)isoindoline-2-carbonyl)-3-methyl-1-oxoisoindolin-2-yl)piperidine-2,6-dione] showed a half-maximal degradation concentration (DC50) of 2.3 nM.
`COc1c(C(=O)N2Cc3c(ccc(Cl)c3F)[C@@H]2C)ccc2c1[C@@H](C)N([C@H]1CCC(=O)NC1=O)C2=O` [Compound 33, (S)-3-((R)-5-((S)-5-chloro-4-fluoro-1-methylisoindoline-2-carbonyl)-4-methoxy-3-methyl-1-oxoisoindolin-2-yl)piperidine-2,6-dione] registered a DC50 of 3 nM.
As for `C[C@@H]1c2cc(C(=O)N3Cc4c(ccc(C(F)(F)F)c4Cl)[C@@H]3C)ccc2C(=O)N1[C@H]1CCC(=O)NC1=O` [Compound 34, (S)-3-((R)-5-((S)-4-chloro-1-methyl-5-(trifluoromethyl)isoindoline-2-carbonyl)-3-methyl-1-oxoisoindolin-2-yl)piperidine-2,6-dione], the half-maximal degradation concentration (DC50) turned out to be 3.1 nM.
Compound `COc1c(C(=O)N2Cc3cc(C(F)(F)F)ccc3[C@@H]2C)ccc2c1[C@@H](C)N([C@H]1CCC(=O)NC1=O)C2=O` [Compound 35, (S)-3-((R)-4-methoxy-3-methyl-5-((S)-1-methyl-5-(trifluoromethyl)isoindoline-2-carbonyl)-1-oxoisoindolin-2-yl)piperidine-2,6-dione] displayed a DC50 of 3.3 nM.
As for `C[C@H]1c2ccc(Br)c(F)c2CN1C(=O)c1ccc2c(c1)CN(C1CCC(=O)NC1=O)C2=O` (stereo partly drawn) [Compound 36, 3-(5-((S)-5-bromo-4-fluoro-1-methylisoindoline-2-carbonyl)-1-oxoisoindolin-2-yl)piperidine-2,6-dione], it took 3.4 nM to reach half-maximal degradation (DC50).
Turning to `C[C@@H]1c2cc(C(=O)N3Cc4cc(C(F)(F)F)ccc4[C@@H]3C)ccc2C(=O)N1[C@@H]1CCC(=O)NC1=O` [Compound 37, (R)-3-((R)-3-methyl-5-((S)-1-methyl-5-(trifluoromethyl)isoindoline-2-carbonyl)-1-oxoisoindolin-2-yl)piperidine-2,6-dione], the DC50 is 6.5 nM.
Regarding `C[C@H]1c2ccc(C(F)(F)F)cc2CN1C(=O)c1ccc2c(c1)CN(C1CCC(=O)NC1=O)C2=O` (stereo partly drawn) [Compound 38, 3-(5-((S)-1-methyl-5-(trifluoromethyl)isoindoline-2-carbonyl)-1-oxoisoindolin-2-yl)piperidine-2,6-dione], half-maximal degradation (DC50) was put at 7.6 nM.
